Experimental data taken from EP0071175A2, “Phenylalkyloxirane-carboxylic acids, process for their preparation, their use and medicines containing them” (Byk Gulden Lomberg Chemische Fabrik GmbH, priority 1981, dated 1983).

Legend:
[1] = system: nüchterner, stoffwechselgesunder Ratten; assay: Blood glucose determination after single oral application; assay type: in vivo, Sprague-Dawley-Ratten; conditions: maximal lowering vs. control group within 6 hours after single oral application of 0,6 mmol substance/kg body weight; fasted male rats
From the text: (§1) In Tabelle I werden Untersuchungen des Einflusses von Vertretern der erfindungsgemäßen Verbindungen auf die Blutglucosekonzentration nüchterner, stoffwechselgesunder Ratten wiedergegeben. Spalte A gibt jeweils die maximale Senkung der Blutglucosekonzentration nüchterner Ratten (in % bezogen auf die Kontrollgruppe) an, die im Laufe von 6 Stunden nach einmaliger oraler Applikation von 0,6 mmöl Substanz/kg Körpergewicht be-, obachtet wird. In der Spalte B werden Daten zur akuten Toxizität (LD50; Maus p.o.) wiedergegeben.
1. Blutglucosebestimmung nach einmaliger oraler Applikation
Zur Verwendung kommen junge männliche Sprague-Dawley-Ratten (Körpergewicht 150-200 g). Die Haltung der Tiere (6 Tiere pro Dosis) erfolgt in Makrolon-Käfigen mit bis zu 4 Tieren pro Käfig (Raumtemperatur 23 °C, rel. Luftfeuchtigkeit 55 %, fester Tag/Nacht-Rythmus (12/12=h) Standarddiät Altromin®). Den Ratten wird 18 Stunden vor der 1. Blutentnahme das Futter entzogen. Wasseraufnahme erfolgt ad libitum. Blutentnahmen erfolgen unmittelbar vor und 2, 4 und 6 Stunden nach Substanzgabe durch Punktion aus dem retroorbitalen Plexus. Nach Enteiweißung mit Perchlorsäure wird die Blutglucosebestimmung mittels der bei Banauch et.al. [J.Clin.Chem.Clin.Biochem. 13, 101(1975)] beschriebener Glucose-Dehydrogenase-Methode mit Hilfe von kommerziellen Reagentien durchgeführt. Zum Vergleich wird jeweils eine mit reinem Lösungsmittel behandelte Kontrollgruppe mituntersucht (10 Tiere pro Kontrollgruppe).

[2] = in vivo; conditions: mouse, po, read-out: Akute Toxizität Maus p.o. LD50
From the text: as §1
2. Bestimmung der Toxizität .
Die Toxizitätsuntersuchungen werden an weiblichen NMRI-Mäusen (Körpergewicht 22-26 g) durchgeführt. Die Tiere (5 Tiere pro Dosis) erhalten 18 Stunden vor der Behandlung das Futter (Altromin®) auf 50 g/50 Tiere reduziert und Wasser ad libitum. Verschiedene Dosen der Substanzen werden oral mittels Schlundsonde verabreicht (Volumen 10 ml/kg). Die Beobachtungsdauer beträgt 7 Tage.

| SMILES | Senkung der Blut-glucosekonzentration (in %) in vivo [1] [%] | LD50 [2] [mg/kg] |
| --- | --- | --- |
| CCCCNC(=N)NC(=N)N [compound 1, Buformin, reference compound] | 8 | – |
| [H]/N=C(/N)N/C(=N/[H])NCCc1ccccc1 [compound 2, Phenformin, reference compound] | 6 | – |
| CCOC(=O)C1(CCCC(C)Cc2ccccc2)CO1 (stereo not shown) [compound 3, 2-(4-Methyl-5-phenylpentyl)-oxiran-2-carbonsäureethylester] | 45 | > 1000 |
| CCOC(=O)C1(CC(CC)CCCc2ccccc2)CO1 (stereo not shown) [compound 4, 2-(2-Ethyl-5-phenylpentyl)-oxiran-2-carbonsäureethylester] | 25 | – |
| CCOC(=O)C1(CCCC(C)Cc2ccc(Cl)cc2)CO1 (stereo not shown) [compound 5, 2-[5-(4-Chlorphenyl)-4-methylpentyl]-oxiran-2-carbonsäure-ethylester] | 70 | ~500 |
| CCOC(=O)C1(CCCC(C)CCCc2ccccc2)CO1 (stereo not shown) [compound 6, 2-(4-Methyl-7-phenylheptyl)-oxiran-2-carbonsäureethylester] | 35 | > 500 |
| CCOC(=O)C1(CCCCC(C)c2ccccc2)CO1 (stereo not shown) [compound 7, 2-(5-Methyl-5-phenylpentyl)-oxiran-2-carbonsäureethylester] | 22 | – |
